The text below walks through data of patent US12605446B2, “PSMA-targeted immunotherapies for cancers” (THE METHODIST HOSPITAL, priority 2020, dated 2026).

The test system of assay [1] is PSMA expression in LNCaP cells. The assay is described as follows: PSMA expression after antiandrogen or androgen treatment, LNCaP. The assay is classed as cell-based.
Assay [2] relates to PSMA expression in VCaP cells. Nature of the assay: PSMA expression after antiandrogen or androgen treatment, VCaP. The assay is classed as cell-based.
The test system of assay [3] is PSMA-positive LNCaP cells. Nature of the assay: Flow cytometric binding of anti-PSMA mAbs to prostate cancer cells. Particulars: mixed PC3 and LNCaP cells, 20 μg antibody, FITC anti-mouse IgG secondary antibody. Here is the method:
PC3 cells and […] cells are mixed and incubated with 20 μg of J591, our home-made mAb #1352, or […] as a negative control. Next, the cells were incubated with FITC anti-mouse IgG secondary antibody (Biolegend, cat #406001), followed by flow cytometric analysis.
(A2). Development of anti-PSMA mAbs and construction of PSMA-CARs. The process of PSMA-CAR T cell therapy development is shown in the flowchart (FIG. 13A). PSMA extracellular domain was produced in baculovirus-insect cell expression system as reported. Purified recombinant PSMA protein was used to immunized BALB/c mice. Out of 38 ELISA-positive hybridomas, seven were confirmed by flow cytometry for their antibody-specific binding to PSMA-positive LNCaP and VCaP cells, but not to PSMA-negative PC3 cells.
A general note: Flow cytometry measures light scatter and fluorescence of single cells or particles in a stream.

Assay [4] relates to PSMA-positive prostate cancer cell lines LNCaP and VCaP. The assay is described as follows: Murine FCγRIII ADCC reporter bioassay. The format is cell-based. To be noted: in vitro ADCC assay.

For `C[C@]1(O)CC[C@H]2[C@@H]3CCC4=CC(=O)CCC4=C3C=C[C@@]21C` [R1881], the “PSMA mRNA levels” value in assay [1] (10 nM R1881) and in assay [2] (10 nM R1881) was “reduced” throughout. With `CNC(=O)c1ccc(N2C(=S)N(c3ccc(C#N)c(C(F)(F)F)c3)C(=O)C2(C)C)cc1F` [enzalutamide], the “PSMA mRNA levels” value in assay [1] (10 μM enzalutamide, 48 hours) is on record as “increased”; in assay [2] (10 μM enzalutamide, 48 hours), “increased”. Besides, the PSMA protein levels result in assay [1] (Enzalutamide, 72 hrs) is “increased”; in assay [2] (Enzalutamide, 72 hrs) it was “increased”.

B1: #1377: anti-PSMA mouse monoclonal antibody of hybridoma #1377; VH SEQ ID NO: 16, VL SEQ ID NO: 18 (antibody, V domains shown)
VH: VQLQQPGAALVRPGASVRLSCKASGYSFTYYWMNWVMQRPGQGLEWIGMIHPSDSETRLSQKFRDKATLTVDKSSSTVYMQLNSPTSDDSAVYYCARDGNFPYYALDYWGQGTSVTVSS
VL: DVVLTQAPLSLPVSLGDQASISCRSSQSLEYSNGNTYLHWYLQKPGQSPELLIYTVSNRFSGVPDRFSGSGSGTDFTLKIHRVEAEDLGVYFCSQSTHVPTFGGGTKLEIKR
As for B1, the “binding to LNCaP cells by flow cytometry” value in assay [3] was “bind to LNCaP cells with high affinity”.

B2: #1207: anti-PSMA mouse monoclonal antibody of hybridoma #1207; VH SEQ ID NO: 28, VL SEQ ID NO: 30 (antibody, V domains shown)
VH: VKLQQSGPGLVKPSQSLSLTCAVTGYSITSDYAWNWIRKFPGNKLEWMGYISYSGRTTYNPSLESRISITRDTSKNQFFLQLNSVTTEDTATYYCARCYYGSSSRWYGMDYWGRGTSVAVSS
VL: IVLTQSPAIMSASPGVKVTMTCRASSSVDSSYLHWYQQKSGASPQVWIYSTSNLASGVPARFSGSGSGTSYSLTISSVEAEDAATYYCQQYSGYPLTFGGGTKLEIKR
As to B2, the “binding to LNCaP cells by flow cytometry” value in assay [3] is “bind to LNCaP cells with high affinity”.

B3: #1366: anti-PSMA mouse monoclonal antibody of hybridoma #1366; VH SEQ ID NO: 20, VL SEQ ID NO: 22 (antibody, V domains shown)
VH: VKLQESGPGLVAPSQSLSITCTVSGFSLTDYGVSWIRQPPGKGLEWLGVIWSDGNTYYNSPLKSRLSINKDNSKSQVFLKMNSLQTDDSAMYYCARHKVYTMDYWGQGTSVTVSS
VL: TVLTQSPAIMSASPGEKVTMTCRASSSVSSSYLHWYQQKSSASPKLWIYRTSNLASGVPARFSGSGSGTSYSLTISSLEAEDAATYYCQQYSGYPLTFGAGTKLELKR
On to B3, for which the “binding to LNCaP cells by flow cytometry” value in assay [3] is listed as “bind to LNCaP cells with high affinity”.

B4: #1352: anti-PSMA mouse monoclonal antibody of hybridoma #1352; VH SEQ ID NO: 24, VL SEQ ID NO: 26 (antibody, V domains shown)
VH: VKLQQSGPELEKPGASVKISCKASGYSFTGYNVNWVKQSNGKSLEWIGNIDPYHGGTTYNQKFEAKATLTVDKSSSTAYMQLKSLTSEDSAVYYCARSSRFDYWGQGTTLTVSS
VL: DIVMTQSHKFMSTSVGDRVNITCKASQDVGTAVAWYQQKPGQSPKFLIYWASTRHTGVPDRFTGSGSGTDFTLTISNVQSEDLADYFCHQYTSYPFTFGSGTKLEMKR
As for B4, the “induction of ADCC activity” value in assay [4] is given as “most potent”. In assay [3], the “binding to LNCaP cells by flow cytometry” value is recorded as “detected as the FITC positive cells”.

B5: #219: anti-PSMA mouse monoclonal antibody of hybridoma #219; VH SEQ ID NO: 12, VL SEQ ID NO: 14 (antibody, V domains shown)
VH: VQLQQSGPELEKPGASVKMSCKASGYSFTGYNVNWVRQNNGKSLEWIGNIDPLHGGTTYNQKFKAKATLTVDRSSSTAYLQLKNLTSEDSAVYYCARSSRFDYWGQGTTLTVSS
VL: DIVMTQSHKFMSTSVGDRVNITCKASQDVGTAVAWYQQKPGQSPKLLIYWASTRHTGVPDRFTGSGSGTDFTLTISNVQSEDLADYFCHQFTSYPFTFGSGTSLEMKR
Turning to B5, in assay [3], the “binding to LNCaP cells by flow cytometry” value is given as “bind to LNCaP cells with high affinity”.
